According to patent publication US9446061B2, “Composition containing antibiotics and lysophosphatidylcholine for boosting immunity or treatment of bacterial infections” (priority 2011, dated 2016):
Marks after values point to notes of the source that are not given here.

How the values were obtained:
[1] = test system: CPA-induced immunosuppressive mice; assay: Thymus and spleen organ weights in CPA-treated mice; type: in vivo, ICR mice; details: LPC 1, DW286 0.5, Mix 0.75 mg/kg
Experimental: At sacrifice of CPA-treated model, the wet-weights of spleen and thymus were measured and regarded as absolute weight and then relative organ weight (% of body weight) was calculated as follow:
=[(Absolute organ weights/Body weight at sacrifice individual)×100]

CPA-CLP mice = assay: Mortality of CPA-CLP mice, LPC and DW286AA alone or combined (Example 9); s.c. 4 times 12-hr intervals from 6 hrs after CLP; type: in vivo, ICR mice; details: for Survival rate: LPC 1, DW286 0.5, Mix 0.75 mg/kg; for survival rates (survivors/total in brackets), Table 13: mg/kg: LPC 1, LPC + DW286 0.5 + 0.25, DW286/LPC 0.5/1.0, LPC/DW286 1.0/0.5, DW286 0.5
Excerpt: (§1) CPA is well known as an immunosuppressive agent. […] Then, the abdomen was closed following the general procedure.

blood WBC = assay: Blood WBC numbers and differential counts in CPA-treated mice; type: in vivo, ICR mice; details: LPC 1, DW286 0.5, Mix 0.75 mg/kg
Experimental: Blood were collected at sacrifice of CPA-treated model from vena cava and total blood leukocyte numbers were calculated using counting chamber, diluting pipette and Türk solution as dilution solution. All numbers were calculated as ×10^3/mm^3. In addition, cell numbers of lymphocytes, eosinophils, neutrophils, monocytes and basophils were calculated among 100 total leukocytes in smear blood samples stained with Giemsa.

[2] = test system: splenic CD3+, CD4+, CD8+ and TNF-α+ cells; assay: Immunohistochemistry of spleen in CPA-treated mice; type: in vivo, ICR mice
Experimental: After deparraffinized, CD3 epitope retrievals were conducted in 10 mM Tris-1 mM EDTA Buffer (pH 9.0), CD4 and CD8 in 1 mM EDTA Buffer (pH 8.0), and TNF-α in 10 mM Citrate Buffer (pH 6.0) as previous methods. Primary anti-antibodies used in the invention were as following table.
The water bath with a staining dish, containing a buffer, was preheated until the temperature reached 95-100. The staining dish was placed at room temperature and the slides were cooled for 20 minutes. After epitope retrivals, sections were immunostained as following steps
First, the sections were incubated with methanol and 0.3% H2O2 for 30 min to block endogenous peroxidase activity at room temperature, and then rinsed three times in 0.01M phosphate buffered saline (PBS; pH 7.2) for 3 times. Then, the sections were incubated with the normal horse serum blocking solution (Vector Lab. Inc., CA, USA., dilution 1:100) for 1 hr at room temperature in a humidity chamber, to block non-specific binding of immunoglobulin, and then rinsed three times in 0.01M PBS. The sections were incubated with four types of primary antisera for 12 hrs at 4 in a humidity chamber, and then rinsed three times in 0.01M PBS. The sections were incubated with universal biotinylated secondary antibody for 1 hr at room temperature in a humidity chamber, and then rinsed three times in 0.01M PBS. The sections were incubated with ABC reagents (Vectastain Elite ABC Kit, Vector Lab. Inc., CA, USA. Dilution 1:50) for 1 hr at room temperature in a humidity chamber, and then rinsed three times in 0.01M PBS. The sections were incubated in the peroxidase substrate kit (Vector Lab. Inc., CA) for 30 seconds at room temperature, and then rinsed three times in 0.01M PBS. The sections were counterstained with the Mayer's hematoxylin solution, and then rinsed in running tap water for 30 minutes. The sections were dehydrated through 95% ethanol for 2 min and 100% ethanol for […], and then rinsed in xylene for 2 hrs. After that, the sections were observed using a cover slip with permanent mounting medium under the light microscope (Zeiss, Germany).
Histomorphometry—Among 1000 splenic or thymic cells, the numbers (N) of immunoreactive cells (CD3+, CD4+, CD8+, and TNF-α+) were observed as N/1000 splenocytes or thymocytes using automated image analysis. In thymus, the counts were conducted in the both cortex and medulla separately.

[3] = test system: CPA-CLP sepsis mouse model; assay: Effects of LPC, LPC isomers, Xigris and DW286aa on mortalities/survivabilities in CPA-CLP sepsis mouse model (SEP009); single i.v. 6 hrs after CLP; type: in vivo; details: LPC, LPC18:0, LPC18:1, LPA 5 mpk, Xigris 0.4 mpk, DW286aa 10 mpk
Experimental: as §1
Then, body weight and mortality changes were observed.
In the Sham and CLP control groups, 10 ml/kg of only sterile physiological saline was single intravenously dosed.

[4] = LPC 1, DW286 0.5, Mix 0.75 mg/kg
[5] = spleen, CPA-treated mice, Mean ± S.D., n = 9

Q: What does the source list for Lysophosphatidylcholine [LPC]?
A: Spleen weight, Relative ([1]; % of body weight at sacrifice): 0.178 ± 0.018*^,# %; Thymus weight, Relative ([1]; % of body weight at sacrifice): 0.099 ± 0.017 %; absolute splenic weights, change compared to CPA control [1]: 35.62%; absolute thymic weights, change compared to CPA control [1]: 13.31%; relative splenic weights, change compared to CPA control [1]: 40.69%; relative thymic weights, change compared to CPA control [1]: 17.56%; Spleen weight, Absolute ([1]; at sacrifice): 0.066 ± 0.007*^,# g; Thymus weight, Absolute ([1]; at sacrifice): 0.037 ± 0.007 g; Survival rate (CPA-CLP mice; 1 day after CLP): 55.55%; survival rates (survivors/total in brackets), Table 13 (CPA-CLP mice; 1 day after dosing): 56 (5/9); Survival rate (CPA-CLP mice; 2 days after CLP): 33.33%; survival rates (survivors/total in brackets), Table 13 (CPA-CLP mice; 2 days after dosing): 33 (3/9); Survival rate (CPA-CLP mice; 3 days after CLP): 22.22%; survival rates (survivors/total in brackets), Table 13 (CPA-CLP mice; 3 days after dosing): 22 (2/9); Survival rate (CPA-CLP mice; 4 days after CLP): 0%; survival rates (survivors/total in brackets), Table 13 (CPA-CLP mice; 4 days after dosing): 0 (0/9); Survival rate (CPA-CLP mice; 5 days after CLP): 0%; Survival rate (CPA-CLP mice; At CLP): 100%; survival rates (survivors/total in brackets), Table 13 (CPA-CLP mice; Dosing Day 0): 100 (9/9); Survival rate (CPA-CLP mice; Total): 0%; blood total WBC numbers, change compared to CPA control (blood WBC): 25.00%; ratio of lymphocytes, change compared to CPA control (blood WBC): 268.78%; ratio of monocytes, change compared to CPA control (blood WBC): −85.27%; ratio of neutrophils, change compared to CPA control (blood WBC): −51.07%; Total WBC (blood WBC; blood at sacrifice): 0.58 ± 0.14 ×10^3/mm^3; WBC differentials: Basophils (blood WBC; blood at sacrifice): 2.33 ± 1.22*^,## %; WBC differentials: Eosinophils (blood WBC; blood at sacrifice): 1.33 ± 1.12 %; WBC differentials: Lymphocytes (blood WBC; blood at sacrifice): 70.22 ± 9.90 %; WBC differentials: Monocytes (blood WBC; blood at sacrifice): 5.56 ± 3.13 %; WBC differentials: Neutrophils (blood WBC; blood at sacrifice): 20.56 ± 8.76 %; numbers of splenic CD3+ cells, change compared to CPA control [2, 4]: 18.29%; numbers of splenic CD4+ cells, change compared to CPA control [2, 4]: 136.54%; numbers of splenic CD8+ cells, change compared to CPA control [2, 4]: 72.89%; splenic TNF-α+ cells, change compared to CPA control [2, 4]: 36.75%; CD3+ cells, Spleen (IHC-Histomorphometry) [2, 5]: 76.89 ± 6.23*^,## N/1000 splenocytes or thymocytes; CD4+ cells, Spleen (IHC-Histomorphometry) [2, 5]: 109.33 ± 20.77*^,# N/1000 splenocytes or thymocytes; CD8+ cells, Spleen (IHC-Histomorphometry) [2, 5]: 88.56 ± 11.18*^,# N/1000 splenocytes or thymocytes; TNF-α+ cells, Spleen (IHC-Histomorphometry) [2, 5]: 63.67 ± 9.10*^,# N/1000 splenocytes or thymocytes; Mortalities ([3]; 1st CPA treat): 0; survivabilities ([3]; 1st CPA treat): 100%; Mortalities ([3]; 2nd CPA treat): 0; survivabilities ([3]; 2nd CPA treat): 100%; Mortalities ([3]; At CLP (day 0)): 0; survivabilities ([3]; At CLP (day 0)): 100%; Mortalities ([3]; Day 1): 1; survivabilities ([3]; Day 1): 90%; Mortalities ([3]; Day 2): 3; survivabilities ([3]; Day 2): 60%; Mortalities ([3]; Day 3): 1; survivabilities ([3]; Day 3): 50%; Mortalities ([3]; Day 4): 1; survivabilities ([3]; Day 4): 40%; Mortalities ([3]; Day 5): 2; survivabilities ([3]; Day 5): 20%; Mortalities ([3]; Day 6): 0; survivabilities ([3]; Day 6): 20%; Mortalities ([3]; Day 7): 1; survivabilities ([3]; Day 7): 10%; Mortalities ([3]; Day 8): 1; survivabilities ([3]; Day 8): 0%; Mortalities ([3]; Day 9): 0; survivabilities ([3]; Day 9): 0%; Mortalities ([3]; Day 10): 0; survivabilities ([3]; Day 10): 0%; Mortalities ([3]; Total): 10; survivabilities ([3]; Total): 0%
